SMILES strings stand for the structures. Where two headings read alike, the source gives them in different places.

The source of these data is PMC6017000, “Distribution Assessments of Coumarins from Angelicae Pubescentis Radix in Rat Cerebrospinal Fluid and Brain by Liquid Chromatography Tandem Mass Spectrometry Analysis” (Molecules : A Journal of Synthetic Chemistry and Natural …, 2018).

The nature of data set [1]: Stability of QC samples in rat brain homogenate (freeze-thaw, room temperature). The format is physicochemical. Particulars: percentage remaining, n = 5; for Stability room temperature: room temperature 24 h; for Stability Freeze-thaw: three freeze-thaw cycles.
A short description of data set [2]: Rat brain distribution after oral administration of APRE (UPLC-MS/MS). Particulars: for log BBexpt.: log (AUC0→∞/brain/AUC0→∞/plasma), oral APRE; for log BBexpt. / Tmax / half-life / Kp: rat; for AUC0→t / AUC0→∞ / CLz/F / Vz/F: rat brain, oral APRE 4 g/kg, mean ± SD, n = 6; for Tmax / half-life: brain; for Tmax / half-life / Kp: po, 4 g/kg; for Kp: brain/plasma.
Procedure: (§1) Each weighed brain sample was homogenized with a 2-fold volume of normal saline solution. IS solution (10 μL, 200 ng/mL) was added to 300 μL of the homogenate. The mixture was then extracted with a 3-fold volume of ethyl acetate. The mixture was vortexed for 1 min and centrifuged at 16,000× g for 10 min. The supernatant was transferred out and dried under a gentle constant flow of nitrogen. The residue was then dissolved with 100 μL of MeOH and ultrasonically (power 250 W, frequency 40 KHz) extracted for 10 min. After centrifugation at 16,000× g for 10 min, the supernatant was drawn out into a clean vial, and 5 μL of each were injected into the UPLC–MS/MS system for analysis.
(§2) The UPLC-MS/MS system consisted of a Shimadzu Nexera UPLC instrument connected to a Shimadzu LCMS-8050 mass spectrometer via the electrospray ionization interface (Shimadzu Corp., Kyoto, Japan). Samples were separated on an ACQUITY UPLC BEH RP18 column (2.1 × 100 mm, 1.7 µm, Waters, Milford, MA, USA) equipped with a BEH RP18 guard column (2.1 × 5 mm, 1.7 µm, Waters, Milford, MA, USA). The column temperature was 30 °C, and the flow rate was 0.4 mL/min. The sample injection volume was 5 µL. The mobile phases consisted of 0.1% (v/v) formic acid in water (A) and ACN (B). The LC gradient elution program and mass working parameters were the same as our previous report [6]. […] The precursor ion, product ion, Q1, Q3, CE and DT were optimized.
(§3) The time schedule included 9 time-points, and six rats were sampled at each time-point. The rats were fasted overnight with free access to water before the experiment. APRE was suspended with the normal saline and orally administered to the rats at a single dose of 4 g/kg. The animals had free access to water during the experiment.
(§4) Cardiac perfusion was carried out quickly with physiological saline after CSF collection at each time-point. The rat brains were separated, weighed and then stored at −80 °C until treatment.
(§5) Results were expressed as the mean ± standard deviation (SD). The UPLC-MS/MS data were processed with Labsolutions 5.65 software (Shimadzu Corp., Kyoto, Japan). The pharmacokinetic parameters were calculated with the Drug and Statistics 2.0 software (Mathematical Pharmacology Professional Committee of China, Shanghai, China).

The test system of another data set is in vitro BBB model. Set-up: method as in PMID 26121397. Particulars: based on bidirectional Papp values; cited from earlier work.
The nature of data set [3]: Rat CSF distribution after oral administration of APRE (UPLC-MS/MS). Particulars: for AUC(0-inf) / AUC(0-t) / Cmax / Tmax / half-life / total amount percentage of CSF/plasma: rat; for AUC(0-inf) / AUC(0-t) / Cmax / Tmax / half-life: CSF, po, 4 g/kg; for total amount percentage of CSF/plasma: (0.48 × AUC0→∞/CSF)/(16 × AUC0→∞/plasma), oral APRE.
Procedure: (§6) Aliquots of 50 μL CSF samples with IS (10 μL, 200 ng/mL) were extracted with 600 μL ethyl acetate.
(§7) The UPLC-MS/MS system consisted of a Shimadzu Nexera UPLC instrument connected to a Shimadzu LCMS-8050 mass spectrometer via the electrospray ionization interface (Shimadzu Corp., Kyoto, Japan). Samples were separated on an ACQUITY UPLC BEH RP18 column (2.1 × 100 mm, 1.7 µm, Waters, Milford, MA, USA) equipped with a BEH RP18 guard column (2.1 × 5 mm, 1.7 µm, Waters, Milford, MA, USA). The column temperature was 30 °C, and the flow rate was 0.4 mL/min. The sample injection volume was 5 µL. The mobile phases consisted of 0.1% (v/v) formic acid in water (A) and ACN (B). […] The precursor ion, product ion, Q1, Q3, CE and DT were optimized.
as §3
(§8) Rats were anesthetized by an intraperitoneal dose of chloral hydrate (350 mg/kg) at 0.25, 0.5, 1, 1.5, 2, 4, 6, 8, 12 h after oral administration of APRE. A dorsal midline cutaneous incision was made, and the muscle at the craniocervical junction was bluntly dissected to expose the atlanto-occipital membrane. The cisterna magna was punctured with a thin syringe needle, and a microinjector connected with the needle was used to collect the interior CSF carefully [27]. Clear CSF was transferred to a clean microtube and frozen at −80 °C until further use. Blood contaminated samples were excluded.
as §5
Details of data set [4]: method as in PMID 28654868. As to conditions: rat plasma, oral APRE; cited from earlier work.
Data set [5] in a line: Stability of QC samples in aCSF (freeze-thaw, room temperature). Format: physicochemical. Particulars: percentage remaining, n = 5; for Stability room temperature: room temperature 24 h; for Stability Freeze-thaw: three freeze-thaw cycles.
For data set [6] the following is noted: rat, in vivo, po.
Procedure: as §1, §2, §3, §4, §5
The conditions of data set [7]: rat, in vivo, po. The source holds these as a separate data set.
Procedure: as §6, §7, §3, §8, §5

In the case of `CC(C)=CCOc1c2ccoc2cc2oc(=O)ccc12` [Compound 4, isoimperatorin], in data set [1] (rat brain QC 5 ng/mL), the Stability room temperature was 91.59±10.74% and the “Stability Freeze-thaw” value turned out to be 104.96±13.66%. For the same compound, in data set [1] (rat brain QC 80 ng/mL), the Stability room temperature was 88.65±10.02% and the “Stability Freeze-thaw” value is listed as 93.10±4.03%. In data set [1] (rat brain QC 160 ng/mL), the Stability room temperature was determined as 86.85±3.37% and the “Stability Freeze-thaw” value is recorded as 89.68±3.96%. Further, in data set [2], the “log BBexpt.” value is reported as −0.16, the AUC0→t was 15.51 ± 4.82 µg·h/kg, the “AUC0→∞” value is 21.56 ± 14.56 µg·h/kg and the CLz/F is listed as 52.86 ± 24.79 g/h/kg. Moreover, in data set [2], the Vz/F is reported as 245.44 ± 108.54 g/kg, the Tmax is 0.33 ± 0.13 h and the half-life was 3.54 ± 1.35 h. Moreover, the “absorption classification across the in vitro BBB model” value in the data set with in vitro BBB model was “moderately-absorbed”. Moreover, in data set [3] (rat CSF after oral APRE), the “MRM response in CSF” value is “under LLOQ”.

In the case of `CC(C)(O)[C@@H]1Cc2c(ccc3ccc(=O)oc23)O1` [Compound 5, columbianetin], the “plasma Cmax” value in data set [4] is 2240.32 ± 1031.92 ng/mL. Further, in data set [5] (aCSF QC 5 ng/mL), the Stability room temperature was determined as 97.23±8.25% and the “Stability Freeze-thaw” value was 96.35±9.69%. In addition, in data set [5] (aCSF QC 320 ng/mL), the Stability room temperature stood at 93.93±2.94% and the “Stability Freeze-thaw” value came out at 93.46±8.56%. In addition, in data set [5] (aCSF QC 640 ng/mL), the Stability room temperature is reported as 99.45±9.62% and the “Stability Freeze-thaw” value came to 93.87±4.82%. In addition, in data set [1] (rat brain QC 5 ng/mL), the Stability room temperature stood at 97.88±10.06% and the “Stability Freeze-thaw” value is reported as 105.83±7.01%. For the same compound, in data set [1] (rat brain QC 1200 ng/mL), the Stability room temperature was 89.46±3.10% and the “Stability Freeze-thaw” value is reported as 91.69±3.42%. In addition, in data set [1] (rat brain QC 2400 ng/mL), the Stability room temperature is 91.21±6.60% and the “Stability Freeze-thaw” value is reported as 87.85±9.09%. For the same compound, in data set [2], the AUC0→t is 13,438.17 ± 2016.06 µg/kg·h, the “AUC0→∞” value is given as 16,664.04 ± 3662.67 µg/kg·h, the CLz/F is 0.11 ± 0.02 g/h/kg and the Vz/F amounted to 0.57 ± 0.39 g/kg. Besides, in data set [2], the time of peak concentration (Tmax) came out at 4 ± 1.79 h, the half-life was 3.92 ± 3.33 h and the concentration ratio (Kp) was 0.08. For the same compound, in data set [3], the AUC(0-inf) was found to be 4140 ± 602 ng·h/mL, the AUC(0-t) worked out at 3370 ± 604 ng·h/mL, the Cmax came to 485 ± 91.4 ng/mL and the time to peak (Tmax) is 5 ± 1.1 h. In data set [3], this compound had a half-life of 4.06 ± 2.42 h.

Consider `CC=C(C)C(=O)OC(C(O)c1cc2ccc(=O)oc2cc1OC)C(C)(C)O` (stereo not drawn) [Compound 9, angelol B], for which, in data set [4], the CL in plasma was 110.26 ± 39.27 g/h/kg and the t1/2 in plasma is given as 6.63 ± 4.37 h. In data set [5] (aCSF QC 5 ng/mL), the Stability room temperature is recorded as 97.45±4.87% and the “Stability Freeze-thaw” value is listed as 95.14±6.53%. Besides, in data set [5] (aCSF QC 40 ng/mL), the Stability room temperature turned out to be 95.67±3.47% and the “Stability Freeze-thaw” value was found to be 95.36±7.29%. In data set [5] (aCSF QC 80 ng/mL), the Stability room temperature was determined as 96.66±9.22% and the “Stability Freeze-thaw” value was found to be 96.89±4.68%. Besides, in data set [1] (rat brain QC 5 ng/mL), the Stability room temperature is recorded as 96.24±7.79% and the “Stability Freeze-thaw” value is 101.51±11.81%. In data set [1] (rat brain QC 80 ng/mL), the Stability room temperature is listed as 97.77±8.23% and the “Stability Freeze-thaw” value worked out at 95.20±9.40%. For the same compound, in data set [1] (rat brain QC 160 ng/mL), the Stability room temperature is on record as 96.20±7.07% and the “Stability Freeze-thaw” value is given as 102.98±8.06%. Moreover, in data set [2], the “log BBexpt.” value is given as −0.44, the AUC0→t came out at 21.06 ± 8.70 µg·h/kg, the “AUC0→∞” value came out at 25.06 ± 8.03 µg·h/kg and the CLz/F is on record as 301.26 ± 92.33 g/h/kg. Moreover, in data set [2], the Vz/F is 1299.16 ± 842.00 g/kg, the Tmax was 0.29 ± 0.1 h and the half-life is 2.77 ± 1.15 h. For the same compound, in data set [3], the “total amount percentage of CSF/plasma” value is recorded as “greater than 1%”, the AUC(0-inf) stood at 28.2 ± 3.94 ng·h/mL, the AUC(0-t) was found to be 20 ± 3.35 ng·h/mL and the Cmax turned out to be 7.65 ± 4.14 ng/mL. In addition, in data set [3], the Tmax came to 0.38 ± 0.31 h and the half-life was 7.02 ± 2.51 h.

Turning to `CC(C)(O)[C@H]1Cc2cc3ccc(=O)oc3cc2O1` [Compound 12, nodakenetin], in data set [5] (aCSF QC 5 ng/mL), the Stability room temperature worked out at 102.33±8.37% and the “Stability Freeze-thaw” value is 101.36±5.89%. In data set [5] (aCSF QC 120 ng/mL), the Stability room temperature was 101.14±5.08% and the “Stability Freeze-thaw” value amounted to 92.78±5.37%. In data set [5] (aCSF QC 240 ng/mL), the Stability room temperature worked out at 99.91±7.69% and the “Stability Freeze-thaw” value is on record as 95.63±4.23%. For the same compound, in data set [1] (rat brain QC 5 ng/mL), the Stability room temperature amounted to 94.83±5.41% and the “Stability Freeze-thaw” value was 98.18±2.46%. Moreover, in data set [1] (rat brain QC 200 ng/mL), the Stability room temperature is recorded as 97.69±5.38% and the “Stability Freeze-thaw” value was determined as 101.08±9.25%. In data set [1] (rat brain QC 400 ng/mL), this compound showed a Stability room temperature of 95.56±2.64%. Besides, in data set [2], the AUC0→t came out at 933.83 ± 66.51 µg·h/kg, the “AUC0→∞” value was determined as 1560.07 ± 730.91 µg·h/kg, the CLz/F amounted to 0.779 ± 0.26 g/h/kg and the Vz/F amounted to 6.30 ± 2.22 g/kg. Besides, in data set [2], the Tmax came out at 5.33 ± 1.03 h, the half-life was 6.27 ± 3.19 h and the Kp came to 0.01. Besides, in data set [3], the “total amount percentage of CSF/plasma” value is “greater than 1%”, the AUC(0-inf) was 625 ± 249 ng·h/mL, the AUC(0-t) was found to be 331 ± 43.2 ng·h/mL and the highest level (Cmax) was 43.5 ± 5.98 ng/mL. In addition, in data set [3], the Tmax was determined as 6.33 ± 0.82 h and the half-life is 6.69 ± 2.25 h.

In the case of `CC(C)=CCOc1c2occc2cc2ccc(=O)oc12` [imperatorin], the “MRM response in brain” value in data set [6] is listed as “under LLOQ”. Besides, in data set [7], the “MRM response in CSF” value is “under LLOQ”.

For orientation: Tmax means the time from dosing to the highest level. For orientation: half-life means the time needed for the level to fall by half in the phase considered. By Kp is commonly meant tissue or fluid exposure divided by exposure in the circulation. As a reminder, the AUC(0-inf) is the area under the concentration-time curve extrapolated to infinity. Read a high AUC(0-inf) as more exposure. As usually defined, the AUC(0-t) is exposure summed from dosing to a finite time, without extrapolation to infinity. Low readings indicate less exposure, high ones more exposure. What is called Cmax is the peak of the concentration-time curve.
